Experimental data reported in patent US9556217B2, “Amphiphilic compounds” (WISCONSIN ALUMNI RESEARCH FOUNDATION, priority 2012, dated 2017).

How the values were obtained:
wild type β2AR (β2AR WT) = target: T1, wild type β2AR (β2AR WT) (Homo sapiens, UniProt P07550); assay: β2AR WT activity after extraction ([3H]-dihydroalprenolol binding); assay type: biochemical; conditions: for β2AR WT initial activity: extracted with 1 wt % or 2 wt % amphiphile; for β2AR WT activity over 72 hours: solubilized samples stored at 4° C.
T1 construct: made in house; host or cells: Sf9 insect cells (baculovirus); lysed cells and membranes extracted directly with amphiphile
T1 sequence (P07550 whole entry): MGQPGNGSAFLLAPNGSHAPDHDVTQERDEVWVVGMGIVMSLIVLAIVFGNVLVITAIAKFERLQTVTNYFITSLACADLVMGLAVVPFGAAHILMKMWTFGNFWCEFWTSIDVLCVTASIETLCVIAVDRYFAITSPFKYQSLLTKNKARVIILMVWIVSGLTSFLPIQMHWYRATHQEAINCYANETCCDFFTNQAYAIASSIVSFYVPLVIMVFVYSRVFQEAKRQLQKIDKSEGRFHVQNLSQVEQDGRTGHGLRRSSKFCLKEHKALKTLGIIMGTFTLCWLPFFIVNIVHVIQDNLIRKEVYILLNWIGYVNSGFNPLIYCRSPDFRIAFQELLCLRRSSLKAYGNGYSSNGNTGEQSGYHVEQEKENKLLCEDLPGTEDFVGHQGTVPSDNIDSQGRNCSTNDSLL
Method: In the examples discussed above, conventional detergents such as DDM were used to extract IMPs from the membrane, and then in most cases the solution of detergent-solubilized protein was diluted with amphiphile-containing solutions to evaluate the new agents. With this approach it is possible that the small amount of residual conventional detergent could affect protein stability. To exclude this possibility, GLC-3 and GDN were used to extract wild type β2AR (β2AR WT) (Kobilka, Trends in Pharmacological Sciences 2011, 32, 213-218) from the membrane. Receptor activity was measured via a binding assay involving the antagonist [^3H]-dihydroalprenolol. […] GDN is therefore highly suitable for GPCR extraction.
(§1) A gene encoding amino-terminally FLAG epitope tagged β2AR was expressed in Sf9 cells by baculovirus, with no ligand present during culture. Cells were infected at a density of 4×10^6 cells/mL and then cultured for 48 hours prior to harvesting by centrifugation. Cells were resuspended and lysed by osmotic shock with a low ionic strength buffer (20 mM Tris pH 7.5, 1 mM EDTA). The lysed cells were aliquoted 35 mg per aliquot, then frozen. For extraction tests, 300 μL of solubilization buffer (20 mM HEPES pH 7.5, 100 mM NaCl) containing each amphiphile was added to each aliquot, which was then homogenized by pipet followed by grinding with a glass dounce tissue homogenizer. After two-hour incubation at 4° C., samples were centrifuged at maximum speed in a tabletop microcentrifuge to pellet insoluble material. Supernatant was removed and assayed for protein concentration by DC protein assay (Bio-Rad).
The amount of functional receptor was quantified by incubation for 1 hour with 10 nM 3H dihydroalprenolol. Samples were then separated by gel filtration over G-50 resin and radioactivity was quantified by liquid scintillation. Nonspecific binding was measured in the presence of 10 μM alprenolol. Assays were performed in triplicate at time points indicated. G-50 filtration was performed in buffer containing 20 mM HEPES pH 7.5, 100 mM NaCl, 10-fold CMC of the detergent tested. All binding assays were performed with ice cold buffers.

[1] = test system: leucine transporter (LeuT); assay: LeuT functional assay ([3H]-Leu binding, SPA); assay type: biochemical, Aquifex aeolicus; conditions: CMC+0.04 wt % or CMC+0.2 wt %
Method: The new amphiphiles were then evaluated for the ability to maintain the leucine transporter (LeuT) from Aquifex aeolicus in a functional state (Quick and Javitch, Proc. Natl. Acad. Sci. USA 2007, 104, 3603-3608). The transporter was initially extracted with DDM and then diluted with amphiphile-containing solutions to generate amphiphile concentration of CMC+0.04 wt % or CMC+0.2 wt %. At both concentrations, GDN was very effective at maintaining LeuT activity, as indicated by binding of radiolabeled leucine, with preservation of >95% of initial activity after 12 days (FIG. 5c).
LeuT functionality was measured according to the procedure reported by Chae and coworkers (Nat. Methods 2010, 7, 1003-1008).
LeuT activity was measured according to the reported procedure (Chae et al., J. Am. Chem. Soc. 2010, 132, 16750-16752). […] Following protein storage at RT, at the indicated time points, samples were centrifuged and the protein concentration was assessed by determining absorbance at 280 nm. Concomitantly, for the corresponding time points, [^3H]-Leu binding was measured using scintillation proximity assay (SPA). […] Binding was assessed in 200 mM NaCl in the presence of tested compounds at the above-mentioned concentrations, and monitored using MicroBeta liquid scintillation counter (PerkinElmer).

β2AR WT = target: T2, β2AR WT (Homo sapiens, UniProt P07550); assay: Extraction of β2AR WT from insect cell membranes; conditions: 1 or 2 wt %; western blotting
T2 construct: made in house; host or cells: Sf9 insect cells (baculovirus); lysed cells and membranes extracted directly with amphiphile
T2 sequence (P07550 whole entry): as above
Method: The favorable MelB extraction performance of GDN led to the examination of this amphiphile for extraction of other IMPs. […] DDM and GDN were used to extract a CMP-Sia fusion protein bearing green fluorescent protein (GFP) at the C-terminus, after expression in Saccharomyces cerevisiae; the amount of solubilized protein was estimated by total fluorescence. GDN (2 wt %), DDM (1 wt %) and OG (1 wt %) gave ˜70%, ˜80% and ˜50% extraction yields, respectively.
The procedure was performed according to the protocol reported by Chae and coworkers (Nat. Methods 2010, 7, 1003-1008).
as §1, with “Supernatant was removed and assayed for protein concentration by DC protein assay (Bio-Rad).” left out

Structure (SMILES)	β2AR WT initial activity (wild type β2AR (β2AR WT); [3H]-dihydroalprenolol binding)	β2AR WT activity over 72 hours (wild type β2AR (β2AR WT))	Maintaining LeuT activity over 12 days ([1]; RT)	β2AR WT initial activity, increase relative to DDM (wild type β2AR (β2AR WT); [3H]-dihydroalprenolol binding)	β2AR WT extraction compared with 1 wt % DDM (β2AR WT)	LeuT activity preserved, % of initial activity ([1]; after 12 days at RT)
CCCCCCCCCCCCO[C@@H]1O[C@H](CO)[C@@H](O[C@H]2O[C@H](CO)[C@@H](O)[C@H](O)[C@H]2O)[C@H](O)[C@H]1O [DDM, dodecyl-β-D-maltoside, reference compound]	low initial activity	rapidly decomposed	lost significant activity	–	–	–
C[C@@H]1CC[C@@]2(OC1)O[C@H]1C[C@H]3[C@@H]4CC=C5C[C@@H](OCCC(CO[C@@H]6OC(CO)[C@@H](O[C@H]7OC(CO)[C@@H](O)C(O)C7O)C(O)C6O)CO[C@@H]6OC(CO)[C@@H](O[C@H]7OC(CO)[C@@H](O)C(O)C7O)C(O)C6O)CC[C@]5(C)[C@H]4CC[C@]3(C)[C@@H]1[C@@H]2C (some centres unmarked) [GDN, glyco-diosgenin]	high initial activity	did not vary over 72 hours	–	> 3 fold	more effective than was 1 wt % DDM	> 95%
